Experimental data published in US20240325557A1, “TREATMENT OF CANCER” (INNATE PHARMA, priority 2020, published 2024).

Key:
[1] = failing prior chemotherapy; cited from earlier work
[2] = 349 patients; cited from earlier work
[3] = biological target: T1, Hu-Nectin4 IgC1C2-V5 (modified Nectin-4 lacking the Ig-like V domain, C1C2 construct) (Homo sapiens, UniProt Q96NY8); experiment: Flow cytometry binding to cells expressing the Nectin-4 C1C2 construct
T1 construct: expressed in transfected cells; host or cells: CHO
T1 sequence (Q96NY8 148-510): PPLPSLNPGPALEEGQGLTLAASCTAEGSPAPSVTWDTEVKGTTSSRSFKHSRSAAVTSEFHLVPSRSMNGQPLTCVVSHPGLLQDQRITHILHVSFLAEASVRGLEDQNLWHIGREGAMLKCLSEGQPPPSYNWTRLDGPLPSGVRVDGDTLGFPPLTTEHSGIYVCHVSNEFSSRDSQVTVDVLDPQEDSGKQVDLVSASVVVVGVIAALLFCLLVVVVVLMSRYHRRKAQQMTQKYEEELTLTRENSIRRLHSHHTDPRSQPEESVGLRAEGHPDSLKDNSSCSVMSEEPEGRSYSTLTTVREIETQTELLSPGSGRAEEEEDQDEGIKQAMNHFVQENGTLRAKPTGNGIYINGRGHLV
Description: (§1) The characterization of the binding of the antibodies on Nectin-4 domains was performed by flow cytometry using cells made to express the wild-type human Nectin-4 protein and cells made to express a modified Nectin-4 having the Ig-like C2 type 1 and the Ig-like C2 type 2 domains and lacking the Ig-like V domain (the C1C2 construct). The latter protein additionally bears a V5 tag for flow cytometry cell sorting, and cells were used as Nectin4-C1C2-V5 sorted cells.
Wild-type Nectin-4 (the CI.3C8 cell line), a C2 construct (containing the Ig-like C2 type 2 domain and lacking both the V and the C1 domains) and the C1C2 construct allow the determination of whether test antibodies bind to the V or different C domains. Briefly, nucleic acid sequences encoding different human Nectin-4 domains were amplified by PCR. The PCR products were inserted into an expression vector at appropriate restriction sites. A leader peptide, and for C1C2 and C2 an N-terminal V5 tag having the amino acid sequence […] (SEQ ID NO: 41), were added, and expression at the surface of cells was confirmed by flow cytometry. The amino acid sequences of the resulting different human Nectin-4 domain fragment-containing proteins are shown below (V5 tag underlined). The vectors were then transfected into the CHO cell line to obtain stable clones expressing the different Nectin-4 domain proteins at the cell surface.

[4] = tested on: rat Nectin-4; experiment: Flow cytometry species cross-reactivity on CHO cells; format: binding
Description: Anti-Nectin-4 antibodies were tested by flow cytometry for binding to different CHO cell lines made to express respectively the mouse, cynomolgus and rat Nectin-4 protein (including an N-terminal V5 tag not shown in the sequences below).

[5] = biological target: T2, wild-type human Nectin-4 (Homo sapiens, UniProt Q96NY8); experiment: Flow cytometry binding to wild-type Nectin-4 expressing CHO cells
T2 construct: expressed in transfected cells; host or cells: CHO (huNectin4 Cl.3C8)
T2 sequence (Q96NY8 32-510): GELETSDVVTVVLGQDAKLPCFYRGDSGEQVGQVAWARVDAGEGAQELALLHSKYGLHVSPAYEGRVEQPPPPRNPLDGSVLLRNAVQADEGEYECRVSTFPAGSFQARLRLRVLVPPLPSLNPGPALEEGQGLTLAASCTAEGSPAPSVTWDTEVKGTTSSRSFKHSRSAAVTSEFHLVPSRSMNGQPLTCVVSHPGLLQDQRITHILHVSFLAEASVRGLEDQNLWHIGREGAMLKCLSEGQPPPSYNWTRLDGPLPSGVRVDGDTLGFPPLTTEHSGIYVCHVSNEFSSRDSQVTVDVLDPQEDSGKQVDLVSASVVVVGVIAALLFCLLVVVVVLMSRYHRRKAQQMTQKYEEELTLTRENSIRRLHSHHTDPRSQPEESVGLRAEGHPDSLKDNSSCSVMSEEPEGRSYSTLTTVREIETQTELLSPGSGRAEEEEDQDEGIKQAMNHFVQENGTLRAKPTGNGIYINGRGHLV
Description: plates of hybridoma supernatants were tested for binding on the wild-type human Nectin-4 expressing CHO cell line by flow cytometry. Briefly, Nectin-4 expressing cells were used at 0.2×10^6 cells by well in a buffer of PBS, BSA 0.5%, EDTA 5 mM. The first antibody was incubated with cells for 1h at +5±3° C. in 50 μL of supernatant. […] Acquisition HTFC flow cytometer (Intellicyt), with data analysis on ForeCyt™ software.
as §1
Wild-type Nectin-4 (the CI.3C8 cell line), a C2 construct (containing the Ig-like C2 type 2 domain and lacking both the V and the C1 domains) and the C1C2 construct allow the determination of whether test antibodies bind to the V or different C domains. Briefly, nucleic acid sequences encoding different human Nectin-4 domains were amplified by PCR. The PCR products were inserted into an expression vector at appropriate restriction sites. […]

[6] = tested on: SUM190 cells; experiment: In vivo efficacy of ADCs, SUM190 mouse model of human breast cancer (Example 9); settings: single i.v. injection 3 mg/kg; antibodies conjugated to ggfg-Dxd, DAR=8
Description: When tumors reached a volume between 195 and 250 mm3, mice were randomized into groups of 9 mice for intravenous treatment with a single injection of 3 mg/kg of camptothecin ADCs. Tumor growth were followed twice a week. Kaplan Meier survival curves were established by using GraphPad Prism V7 software according to the following criteria: When the tumor volume reached 1500 mm3, mice were euthanized and considered dead on the day of sacrifice (D).

[7] = biological target: T3, wild-type human Nectin-4 protein (huNectin4-his-BirA) (Homo sapiens, UniProt Q96NY8); experiment: Affinity determination by SPR (Biacore T200); format: binding; settings: 25° C.
T3 sequence (Q96NY8 with tags, fused parts or gaps): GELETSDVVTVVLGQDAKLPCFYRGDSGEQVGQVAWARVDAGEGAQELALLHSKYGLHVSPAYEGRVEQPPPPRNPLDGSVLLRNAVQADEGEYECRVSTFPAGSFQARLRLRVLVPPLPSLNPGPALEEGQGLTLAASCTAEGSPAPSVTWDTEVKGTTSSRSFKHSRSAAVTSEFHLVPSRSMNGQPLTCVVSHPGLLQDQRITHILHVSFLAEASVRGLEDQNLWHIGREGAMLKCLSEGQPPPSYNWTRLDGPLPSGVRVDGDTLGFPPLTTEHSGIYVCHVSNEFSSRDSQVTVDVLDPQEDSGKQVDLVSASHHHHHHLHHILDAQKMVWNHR
Description: Antibodies were tested for binding affinity to the wild-type human Nectin-4 protein by SPR (Surface Plasmon Resonance) methods. Measurements were performed on a Biacore T200 apparatus (Biacore GE Healthcare) at 25° C. Sensorgrams were analyzed with Biacore T100 Evaluation software. A CMR Sensor Chip with immobilized Protein A at about 600 RU was used. Anti-Nectin-4 antibodies were captured onto the Protein-A chip (antibodies diluted to 1 μg/ml in HBS-EP+1× buffer and injected over 120s at 40 μL/min). Recombinant human monomeric huNectin4-his-BirA protein was injected at different concentrations in a range from 100 nM to 1.56 nM over captured antibodies (HuNectin4-His-BirA diluted in HBS-EP+1× in ½ dilutions, injected over 120s at 40 μl/min) and allowed to dissociate for 600s. The chip was regenerated with NaOh 10 mM 2× for 30s at 40 μl/min. The sensorgram sets were fitted using the 1:1 kinetic binding model or two state reaction model, as a function of the profile of the curves.

[8] = tested on: SUM185 cells; experiment: In vitro ADC cytotoxicity, 5 days, CTG; format: cell-based, human; settings: model of anti-HER2 resistance
Description: Luminescence vs. Ab concentration was plotted on graph.
For each ADC, a concentration range of ADC was incubated with nectin-4-expressing cells. After incubation, CTG substrate was added at 1/1 ratio and the luminescent signal was read with a plate reader (Enspire). It allowed quantifying the ATP present (indicator of metabolically active cells) which was proportional to cell viability.
This setting is used as a model of anti-HER2 resistance.
For each ADC, a concentration range of ADC was incubated with nectin-4-expressing cells. After incubation, CTG substrate was added at 1:1 ratio and the luminescent signal was read with a plate reader (Enspire), allowing quantification of the ATP present (indicator of metabolically active cells) which was proportional to cell viability.

[9] = tested on: MC-38 cells that endogenously express MDR1 P-glycoprotein engineered to express Nectin-4; experiment: In vitro efficacy of ADCs in Pgp-expressing cancer model (CTG, five days); format: cell-based; settings: presence or absence of cyclosporin A (5 μM); 150 nM ADC, normalized to control antibody
Description: MC-38 cells that endogenously express MDR1 P-glycoprotein (Pgp) were engineered to express Nectin-4 and cultured in DMEM+10% FBS. Cells were either treated with vehicle (DSMO) or with cyclosporin A (5 μM, stock solution in DMSO) known to act as an inhibitor of Pgp, in presence of ADCs.
The ADCs and the equivalent isotype control ADCs were used at dose range from 150 to 2.3 10^−3 nM. After five days of co-incubation with cells, cell viability was measured by addition of Cell Titer Glo™ (CTG) substrate. Luminescence vs. Ab concentration was plotted.

[10] = UC patients; cited from earlier work

Sequence of rat Nectin-4 (as listed by the source): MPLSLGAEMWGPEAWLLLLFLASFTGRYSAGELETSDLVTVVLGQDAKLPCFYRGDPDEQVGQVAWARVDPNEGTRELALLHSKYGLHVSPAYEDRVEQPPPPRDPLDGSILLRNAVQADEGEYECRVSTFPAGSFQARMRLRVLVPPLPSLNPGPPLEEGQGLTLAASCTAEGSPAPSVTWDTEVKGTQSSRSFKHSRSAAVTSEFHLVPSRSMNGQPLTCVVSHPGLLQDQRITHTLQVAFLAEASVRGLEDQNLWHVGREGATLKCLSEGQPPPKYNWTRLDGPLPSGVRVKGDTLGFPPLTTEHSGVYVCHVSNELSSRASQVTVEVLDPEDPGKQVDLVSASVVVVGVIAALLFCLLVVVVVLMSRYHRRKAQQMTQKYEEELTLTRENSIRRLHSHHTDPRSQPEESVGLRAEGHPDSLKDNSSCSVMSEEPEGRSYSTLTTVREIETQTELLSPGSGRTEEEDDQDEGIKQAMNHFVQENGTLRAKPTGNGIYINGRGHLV

CC[C@@]1(O)C(=O)OCc2c1cc1n(c2=O)Cc2cc3c([N+](=O)[O-])cccc3nc2-1 [RFS2000]
activity in patients [1]: did not exert significant activity

CC[C@@]1(O)C(=O)OCc2c1cc1n(c2=O)Cc2c-1nc1cc(F)c(C)c3c1c2[C@@H](N)CC3 [exatecan]
efficacy in addition to gemcitabine versus gemcitabine alone [2]: not superior in efficacy to gemcitabine alone

Enfortumab [reference compound]
binding to the C1C2 construct [3]: lost all binding to the C1C2 construct
binding to rat Nectin-4 expressing CHO cells [4]: bind to rat Nectin-4
binding to whole (wild-type) human Nectin-4 protein [5]: bound to the whole Nectin-4 protein
control of tumor growth [6]: no longer showed the ability to control tumor growth
Kd [7]: 13.7 nM
ka [7]: 340000 M⁻¹ s⁻¹
kd [7]: 0.0047 s⁻¹

PADCEV
killing of SUM185 cells (cell viability) [8]: able to kill the SUM185 more efficiently than ENHERTU
influence of Pgp on anti-tumor activity [9]: negatively affected by Pgp
CR (complete response rate) [10]: 12%
ORR (objective response rate) [10]: 44%
discontinuation due to clinical symptoms [10]: 5%
discontinuation due to progressive disease as assessed by RECIST [10]: 48%
patients that discontinued experienced adverse events, notably neuropathy [10]: 18%
